Data taken from patent US9908848B2, “Amide derivatives of lactam based N-acylethanolamine acid amidase (NAAA) inhibitors” (The Regents of the University of California, priority 2013, dated 2018).

Experiments:
[1] = target: T1, Rat AC (r-AC), Acid Ceramidase (Rattus norvegicus, UniProt Q6P7S1); assay: Rat AC (r-AC) assay, UPLC/MS; assay type: biochemical; conditions: read-out: r-AC UPLC/MS assay % inhib.
T1 construct: V5 (C); His (C); made in house; host or cells: HEK293 cells transfected with pEF6-rAC-V5/His, selected with G418; soluble fraction after freeze/thaw
T1 sequence (Q6P7S1 21-394): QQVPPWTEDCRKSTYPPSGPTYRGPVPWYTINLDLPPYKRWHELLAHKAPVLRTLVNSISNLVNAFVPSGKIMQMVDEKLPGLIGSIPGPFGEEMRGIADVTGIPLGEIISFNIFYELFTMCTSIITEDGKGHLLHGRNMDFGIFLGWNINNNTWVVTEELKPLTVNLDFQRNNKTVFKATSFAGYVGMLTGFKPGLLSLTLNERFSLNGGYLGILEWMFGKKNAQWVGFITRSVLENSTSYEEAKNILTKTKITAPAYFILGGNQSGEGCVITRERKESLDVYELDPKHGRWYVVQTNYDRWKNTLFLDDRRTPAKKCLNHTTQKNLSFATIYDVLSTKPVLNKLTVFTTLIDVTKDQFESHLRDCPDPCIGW
Protocol: The selectivity of selected compounds versus Acid Ceramidase (AC) was determined.
Rat AC (r-AC) was cloned from a brain cDNA library using primers based on the sequence obtained from the National Center for Biotechnology Information (NCBI) database: 5′rAC (5′-GACCATGCTGGGCCGTAGT-3′) (SEQ ID NO:1) and 3′rAC (5′-CCAGCCTATACAAGGGTCT-3′) (SEQ ID NO:2). The PCR (High Fidelity PCR Master, Roche) product was subcloned into a pEF6-V5/His vector (Invitrogen) to construct a mammalian expression vector encoding V5/His-tagged rat AC. HEK293 cells were transfected with pEF6-rAC-V5/His using Super-Fect reagent (Qiagen) and screened with G418 (0.3 mg/mL). Cells were suspended in 20 mM Tris HCl (pH 7.5) containing 0.32M sucrose, sonicated and centrifuged at 800×g for 15 min at 4° C. The supernatants were centrifuged again at 12,000×g for 30 min at 4° C. The pellets were suspended in phosphate-buffered saline (PBS) and subjected to 2 freeze-thaw cycles at −80° C. The suspensions were centrifuged at 105,000×g for 1 hour at 4° C. The supernatants containing recombinant AC were kept at −80° C. until use. Protein concentration was measured using the bicinchoninic acid (BCA) assay (Pierce). Recombinant rat AC (50 μg) was preincubated with inhibitors (final DMSO concentration 1%) in assay buffer (100 mM sodium phosphate, 0.1% Nonidet P-40, 150 mM NaCl, 3 mM DTT, 100 mM sodium citrate, pH 4.5) for 30 min at 37° C. Reactions were started by the addition of 100 μM N-lauroyl ceramide (Nu-Chek Prep, Elysian, Minn.) and carried on for 30 min at 37° C. Reactions were stopped by addition of a mixture of chloroform/methanol (2:1, vol/vol) containing 1 nmol of heptadecanoic acid (HDA; NuChek Prep). The organic phases were collected, dried under N2, and analyzed by LC-MS in the negative-ion mode using […] (HDA) as internal standard (m/z=199 for lauric acid, m/z=269 for HDA). HDA was eluted on an XDB Eclipse C18 column isocratically at 2.2 mL/min for 1 min with a solvent mixture of 95% methanol and 5% water, both containing 0.25% acetic acid and 5 mM ammonium acetate. The column temperature was 50° C. Electrospray ionization (ESI) was in the negative mode, capillary voltage as 4 kV, and fragmentor voltage was 100 V. N2 was used as drying gas at a flow rate of 13 L/min and a temperature of 350° C. Nebulizer pressure was set at 60 psi. We monitored […] in the selected-ion monitoring (SIM) mode using HDA as internal standard. Calibration curves were generated using commercial lauric acid (Nu-Chek Prep; m/z=199).

[2] = tested on: carrageenan-induced paw edema and heat hyperalgesia; assay: Carrageenan-induced inflammation (paw edema, heat hyperalgesia); assay type: in vivo; conditions: mice, intraperitoneal, 10-100 mg/kg

| Compound | inhibition at 1 µM [1] [%] | paw edema ([2]; FIG. 1 A) | heat hyperalgesia ([2]; FIG. 1 B) |
| --- | --- | --- | --- |
| O=C(CCCCCCc1ccccc1)N[C@H]1CNC1=O [Example 7, 7-Phenyl-N-[(3S)-2-Oxoazetidin-3-yl]-heptanamide] | 25 |  |  |
| CCCCCCCCC(=O)N[C@H]1CNC1=O [Example 3, N-[(3S)-2-Oxoazetidin-3-yl]-nonanamide] | 25 | reduced | reduced |
